Experimental data as given in ChEMBL document CHEMBL4325854, “Synthetic small molecules as anti-biofilm agents in the struggle against antibiotic resistance” (Eur J Med Chem, 2019).

Assays:
Pseudomonas aeruginosa [1] = experiment: Antibiofilm activity against Pseudomonas aeruginosa PA14 assessed as inhibition of biofilm dispersion; format: functional, organism-based
[2] = test system: Bordetella bronchiseptica; experiment: Antibiofilm activity against Bordetella bronchiseptica RB50 assessed as inhibition of biofilm dispersion; format: functional, organism-based
[3] = test system: Staphylococcus epidermidis; experiment: Antibiofilm activity against Staphylococcus epidermidis at 25 ug/ml relative to control; format: functional
Staphylococcus aureus [4] = experiment: Antibiofilm activity against Staphylococcus aureus ATCC 29213 at 25 ug/ml relative to control; format: functional
Staphylococcus aureus [5] = experiment: Antibiofilm activity against methicillin-resistant Staphylococcus aureus; format: functional, organism-based; settings: Staphylococcus aureus
Acinetobacter baumannii [6] = experiment: Antibiofilm activity against Acinetobacter baumannii; format: functional, organism-based
Staphylococcus aureus [7] = experiment: Antibiofilm activity against Staphylococcus aureus isolate 657 at 1.5 ug/ml relative to control; format: functional
Staphylococcus aureus [8] = experiment: Antibiofilm activity against Staphylococcus aureus isolate 702 at 1.5 ug/ml relative to control; format: functional
[9] = test system: Staphylococcus epidermidis; experiment: Antibiofilm activity against Staphylococcus epidermidis DSM 3269 at 1.5 ug/ml relative to control; format: functional
Staphylococcus aureus [10] = experiment: Antibiofilm activity against Staphylococcus aureus ATCC 25923 at 1.5 ug/ml relative to control; format: functional
Staphylococcus aureus [11] = experiment: Antibiofilm activity against Staphylococcus aureus ATCC 29213 at 1.5 ug/ml relative to control; format: functional
[12] = test system: Staphylococcus epidermidis; experiment: Antibiofilm activity against Staphylococcus epidermidis RP62A at 1.5 ug/ml relative to control; format: functional
Acinetobacter baumannii [13] = experiment: Antibiofilm activity against Acinetobacter baumannii preformed biofilms; format: functional, organism-based
Staphylococcus aureus [14] = experiment: Antibiofilm activity against methicillin-resistant Staphylococcus aureus BAA-1770; format: functional, organism-based
Staphylococcus aureus [15] = experiment: Antibiofilm activity against methicillin-resistant Staphylococcus aureus BAA-1685; format: functional, organism-based
Staphylococcus aureus [16] = experiment: Antibiofilm activity against methicillin-resistant Staphylococcus aureus ATCC 43300; format: functional, organism-based
Staphylococcus aureus [17] = experiment: Antibiofilm activity against Staphylococcus aureus at 100 uM relative to control; format: functional
Sortase A = target: T1, Sortase A (Staphylococcus aureus, UniProt Q9S446); experiment: Inhibition of Staphylococcus aureus SrtA
T1 sequence (Q9S446 whole entry): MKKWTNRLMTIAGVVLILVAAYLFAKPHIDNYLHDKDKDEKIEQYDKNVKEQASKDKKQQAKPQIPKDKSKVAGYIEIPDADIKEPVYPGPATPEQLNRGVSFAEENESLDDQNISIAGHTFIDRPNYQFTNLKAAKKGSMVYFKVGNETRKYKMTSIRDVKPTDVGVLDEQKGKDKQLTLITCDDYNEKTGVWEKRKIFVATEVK

Enterococcus faecalis = experiment: Antibiofilm activity against Enterococcus faecalis ATCC 29212; format: functional
Staphylococcus aureus [18] = experiment: Antibiofilm activity against Staphylococcus aureus BAA-1026; format: functional
Pseudomonas aeruginosa [19] = experiment: Antibiofilm activity against Pseudomonas aeruginosa PAO1 assessed as inhibition of biofilm dispersion; format: functional, organism-based

**Q.** With `Nc1nc(CCCNC(=O)c2cc(Br)c(Br)n2-c2ccc(Br)cc2)c[nH]1` as the compound, how does the IC50 (Pseudomonas aeruginosa [1]) read?
**A.** Its IC50 is 16.4 µM.

**Q.** What about the IC50 [2] of the same compound?
**A.** Its IC50 is 29.3 µM.

**Q.** Which results are given for `Nc1nc(CCCNC(=O)c2cc(Br)c(Br)n2CCc2ccccc2)c[nH]1`?
**A.** IC50 (Pseudomonas aeruginosa [1]): 22.9 µM; IC50 [2]: 22.5 µM

**Q.** Which results are given for `Cc1nn(C)c([N-]C(=O)c2ccc(Cl)cc2)c1[N+]#N`?
**A.** Activity [3]: 69 - 96%; Activity (Staphylococcus aureus [4]): 69 - 96%

**Q.** For `Cc1nn(C)c([N-]C(=O)c2ccc(Cl)cc2Cl)c1[N+]#N`, which Activity [3] is on record?
**A.** The Activity was 69 - 96%.

**Q.** And the Activity (Staphylococcus aureus [4])?
**A.** The Activity was 69 - 96%.

**Q.** Which results are given for `CCCCCc1ccc(C(=O)NCCn2cc(CCCCCc3c[nH]c(N)n3)nn2)cc1`?
**A.** IC50 (Staphylococcus aureus [5]): 15.2 to 34 µM; IC50 (Acinetobacter baumannii [6]): 15.2 to 34 µM

**Q.** Which Activity (Staphylococcus aureus [7]) does the source give for `O=C(c1cc(Br)c(F)[nH]1)c1cc(Cl)cc(Cl)c1O` here?
**A.** The Activity was greater than 60%.

**Q.** What about the Activity (Staphylococcus aureus [8]) of the same compound?
**A.** The Activity was greater than 60%.

**Q.** What about the Activity [9] of the same compound?
**A.** The Activity was greater than 60%.

**Q.** What about the Activity (Staphylococcus aureus [10]) of the same compound?
**A.** Its Activity is greater than 60%.

**Q.** What about the Activity (Staphylococcus aureus [11]) of the same compound?
**A.** The Activity was greater than 60%.

**Q.** And the Activity [12]?
**A.** The Activity was greater than 60%.

**Q.** For `O=C(c1cc(Br)cc(Br)c1O)c1[nH]c(Br)c(Br)c1Br`, which Activity (Staphylococcus aureus [7]) is on record?
**A.** The Activity was greater than 60%.

**Q.** And the Activity (Staphylococcus aureus [8])?
**A.** Its Activity is greater than 60%.

**Q.** What about the Activity [9] of the same compound?
**A.** The Activity was greater than 60%.

**Q.** What about the Activity (Staphylococcus aureus [10]) of the same compound?
**A.** Its Activity is greater than 60%.

**Q.** And the Activity (Staphylococcus aureus [11])?
**A.** The Activity was greater than 60%.

**Q.** What about the Activity [12] of the same compound?
**A.** The Activity was greater than 60%.

**Q.** Which results are given for `O=C(c1cc(Br)ccc1O)c1[nH]c(Br)c(Cl)c1Br`?
**A.** Activity (Staphylococcus aureus [7]): >60%; Activity (Staphylococcus aureus [8]): >60%; Activity [9]: >60%; Activity (Staphylococcus aureus [10]): >60%; Activity (Staphylococcus aureus [11]): >60%; Activity [12]: >60%

**Q.** Which Activity (Staphylococcus aureus [7]) does the source give for `O=C(c1cc(Br)ccc1O)c1[nH]c(Br)c(Br)c1Br` here?
**A.** Its Activity is greater than 60%.

**Q.** And the Activity (Staphylococcus aureus [8])?
**A.** The Activity was greater than 60%.

**Q.** And the Activity [9]?
**A.** Its Activity is greater than 60%.

**Q.** What about the Activity (Staphylococcus aureus [10]) of the same compound?
**A.** Its Activity is greater than 60%.

**Q.** And the Activity (Staphylococcus aureus [11])?
**A.** Its Activity is greater than 60%.

**Q.** And the Activity [12]?
**A.** The Activity was greater than 60%.

**Q.** With `O=C(c1cc(Br)ccc1O)c1[nH]c(Cl)c(Br)c1Br` as the compound, how does the Activity (Staphylococcus aureus [7]) read?
**A.** The Activity was greater than 60%.

**Q.** And the Activity (Staphylococcus aureus [8])?
**A.** Its Activity is greater than 60%.

**Q.** What about the Activity [9] of the same compound?
**A.** The Activity was greater than 60%.

**Q.** And the Activity (Staphylococcus aureus [10])?
**A.** The Activity was greater than 60%.

**Q.** And the Activity (Staphylococcus aureus [11])?
**A.** The Activity was greater than 60%.

**Q.** And the Activity [12]?
**A.** Its Activity is greater than 60%.

**Q.** What does the source list for `O=C(c1cc(Cl)cc(Cl)c1O)c1[nH]c(Br)c(Br)c1Br`?
**A.** Activity (Staphylococcus aureus [7]): >60%; Activity (Staphylococcus aureus [8]): >60%; Activity [9]: >60%; Activity (Staphylococcus aureus [10]): >60%; Activity (Staphylococcus aureus [11]): >60%; Activity [12]: >60%

**Q.** What does the source list for `C/C(=C\c1cccc2ccccc12)Cn1cc(CCCCCc2c[nH]c(N)n2)nn1`?
**A.** EC50 (Staphylococcus aureus [5]): 4.5 to 9.8 µM; EC50 (Acinetobacter baumannii [13]): 44.7 to 59.6 µM

**Q.** Which results are given for `O=C(c1cc(Br)ccc1O)c1[nH]c(Cl)c(Cl)c1Br`?
**A.** Activity (Staphylococcus aureus [7]): >60%; Activity (Staphylococcus aureus [8]): >60%; Activity [9]: >60%; Activity (Staphylococcus aureus [10]): >60%; Activity (Staphylococcus aureus [11]): >60%; Activity [12]: >60%

**Q.** How did the Activity (Staphylococcus aureus [7]) turn out when `O=C(c1cc(Cl)cc(Cl)c1O)c1[nH]c(Cl)c(Cl)c1Cl` was run?
**A.** The Activity was greater than 60%.

**Q.** What about the Activity (Staphylococcus aureus [8]) of the same compound?
**A.** Its Activity is greater than 60%.

**Q.** What about the Activity [9] of the same compound?
**A.** Its Activity is greater than 60%.

**Q.** And the Activity (Staphylococcus aureus [10])?
**A.** The Activity was greater than 60%.

**Q.** And the Activity (Staphylococcus aureus [11])?
**A.** The Activity was greater than 60%.

**Q.** And the Activity [12]?
**A.** Its Activity is greater than 60%.

**Q.** How did the IC50 (Staphylococcus aureus [14]) turn out when `CCCCCc1ccc(C(=O)NCCn2cc(CCCCCc3c[nH]c(NCc4ccc(CCCC)cc4)n3)nn2)cc1` was run?
**A.** Its IC50 is 5.9 µM.

**Q.** What about the IC50 (Staphylococcus aureus [15]) of the same compound?
**A.** The IC50 was 5.5 µM.

**Q.** What about the IC50 (Staphylococcus aureus [16]) of the same compound?
**A.** Its IC50 is 4.4 µM.

**Q.** How did the EC50 (Staphylococcus aureus [5]) turn out when `CCCCOc1ccc(/C=C(\C)Cn2cc(CCCCCc3c[nH]c(N)n3)nn2)cc1` was run?
**A.** The EC50 was 4.5 to 9.8 µM.

**Q.** And the EC50 (Acinetobacter baumannii [13])?
**A.** Its EC50 is 44.7 to 59.6 µM.

**Q.** How did the Activity (Staphylococcus aureus [17]) turn out when `CC(=O)/C(=N\Nc1cccc(Cl)c1)C(=O)O` was run?
**A.** The Activity was 39.2 - 68.3%.

**Q.** And the IC50 (Sortase A)?
**A.** The IC50 was 50 to 92 µM.

**Q.** Which IC50 (Staphylococcus aureus [5]) does the source give for `CCCCc1ccc(C(=O)NCCn2cc(CCCCc3[nH]c(N)nc3-c3ccoc3)nn2)cc1` here?
**A.** The IC50 was 7.2 µM.

**Q.** Which IC50 (Staphylococcus aureus [5]) does the source give for `CCCCCCCCCCCCCCNC(=O)Cn1cc(C[C@@]23CNC[C@@H]2Nc2ccccc23)nn1` here?
**A.** Its IC50 is 5.4 µM.

**Q.** Which results are given for `N#Cc1ccc(-c2csc(-c3ccc(-c4csc(-c5ccccc5)n4)cc3)n2)cc1`?
**A.** MBEC (Enterococcus faecalis): 2 µg/mL; MBEC (Staphylococcus aureus [18]): 250 µg/mL

**Q.** Which results are given for `COc1cc(N/N=C(\C(C)=O)C(=O)O)cc(OC)c1OC`?
**A.** Activity (Staphylococcus aureus [17]): 39.2 - 68.3%; IC50 (Sortase A): 50 to 92 µM

**Q.** Which MBEC (Enterococcus faecalis) does the source give for `O=[N+]([O-])c1ccc(-c2csc(-c3ccc(-c4csc(-c5ccccc5)n4)cc3)n2)cc1` here?
**A.** The MBEC was 2 µg/mL.

**Q.** What about the MBEC (Staphylococcus aureus [18]) of the same compound?
**A.** Its MBEC is greater than 1000 µg/mL.

**Q.** Which results are given for `CCCCCCCCCCNC(=O)CCCc1c[nH]c(N)n1`?
**A.** IC50 (Pseudomonas aeruginosa [19]): 8 µM; IC50 (Pseudomonas aeruginosa [1]): 6 µM

**Q.** With `Clc1ccc(-c2csc(-c3ccc(-c4csc(-c5ccccc5)n4)cc3)n2)cc1` as the compound, how does the MBEC (Enterococcus faecalis) read?
**A.** Its MBEC is 16 µg/mL.

**Q.** What about the MBEC (Staphylococcus aureus [18]) of the same compound?
**A.** Its MBEC is greater than 1000 µg/mL.

**Q.** With `CC(=O)/C(=N\Nc1ccc([N+](=O)[O-])cc1)C(=O)O` as the compound, how does the Activity (Staphylococcus aureus [17]) read?
**A.** Its Activity is 39.2 - 68.3%.

**Q.** And the IC50 (Sortase A)?
**A.** Its IC50 is 50 to 92 µM.
